One molecule from ChEMBL document CHEMBL1777706, “Discovery of selective and orally available spiro-3-piperidyl ATP-competitive MK2 inhibitors” (Bioorg Med Chem Lett, 2011) can be followed below.

Active and inactive are the calls of the source. The calls are words filed in the database; no cut-off is given here.

Data set [1] is described as follows: Half life in rat liver microsomes. It is filed as ADME, Microsome.
The nature of data set [2]: AUC in po dosed rat. It is filed as ADME, organism-based. The following applies: plasma.
The subject of a further data set is THP-1. The data set is described as follows: Antiinflammatory activity in human THP1 cells assessed as inhibition of LPS-induced TNFalpha production pretreated 30 mins before LPS challenge measured after 4 hrs. It is filed as functional, cell-based.
Data set [3] in a line: Inhibition of p38.
Data set [4] deals with Serine/threonine-protein kinase pim-1 (Homo sapiens) (UniProt P11309). Kind of data set: Inhibition of PIM1 at 1 uM.
The nature of another data set: in vitro. The following applies: human, Caco-2.
Data set [5] is described as follows: Half life in human liver microsomes. It is filed as ADME, Microsome.
Data set [6] deals with Mitogen-activated protein kinase 1 (Homo sapiens) (UniProt P28482). Kind of data set: Inhibition of ERK2 at 1 uM.
For data set [7], the target named is T1, MAP kinase-activated protein kinase 5 (Homo sapiens) (UniProt Q8IW41).
T1 sequence (whole entry): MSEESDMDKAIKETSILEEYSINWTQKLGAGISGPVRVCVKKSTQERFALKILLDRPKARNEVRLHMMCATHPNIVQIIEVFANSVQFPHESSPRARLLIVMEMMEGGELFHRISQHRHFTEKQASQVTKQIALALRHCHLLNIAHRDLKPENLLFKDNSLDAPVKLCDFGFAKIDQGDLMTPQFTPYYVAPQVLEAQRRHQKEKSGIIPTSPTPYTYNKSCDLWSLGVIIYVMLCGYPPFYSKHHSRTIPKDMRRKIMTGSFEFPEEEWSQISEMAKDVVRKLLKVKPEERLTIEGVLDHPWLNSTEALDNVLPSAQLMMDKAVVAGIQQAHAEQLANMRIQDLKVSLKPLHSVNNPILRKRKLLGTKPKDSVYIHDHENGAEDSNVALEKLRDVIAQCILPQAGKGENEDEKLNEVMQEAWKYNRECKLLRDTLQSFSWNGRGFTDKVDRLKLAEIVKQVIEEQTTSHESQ
Kind of data set: Inhibition of MK5 at 1 uM.

Data set [8] has as its target MAP kinase-activated protein kinase 3 (Homo sapiens) (UniProt Q16644). The data set is described as follows: Inhibition of MK3 at 1 uM.
The next data set deals with PBMC. Kind of data set: Antiinflammatory activity in human PBMC cells assessed as inhibition of LPS-induced TNFalpha production pretreated 30 mins before LPS challenge measured after 4 hrs by ELISA. It is filed as functional, cell-based.
In data set [9] the target is Serine/threonine-protein kinase pim-3 (Homo sapiens) (UniProt Q86V86). Kind of data set: Inhibition of PIM3 at 1 uM.
In data set [10] the target is Mitogen-activated protein kinase 3 (Homo sapiens) (UniProt P27361). The data set is described as follows: Inhibition of ERK1 at 1 uM.
The nature of data set [11]: Dissociation constant, pKa of the compound at pH 7.4. It is filed as physicochemical.
The target in data set [12] is Serine/threonine-protein kinase Chk2 (Homo sapiens) (UniProt O96017). The data set is described as follows: Inhibition of CHK2 at 1 uM.
In data set [13] the target is T2, MAP kinase-activated protein kinase 2 (Homo sapiens, UniProt P49137). The data set is described as follows: Inhibition of MK2 in LPS-stimulated human THP1 cells assessed as inhibition of Hsp27 phosphorylation pretreated 60 mins before LPS challenge measured after 10 mins. It is filed as cell-based, THP-1.
Data set [14] in a line: Oral bioavailability in mouse. It is filed as ADME, organism-based. The conditions noted are these: in vivo.
Data set [15] deals with T3, Serine/threonine-protein kinase 17A (Homo sapiens) (UniProt Q9UEE5).
T3 sequence (whole entry): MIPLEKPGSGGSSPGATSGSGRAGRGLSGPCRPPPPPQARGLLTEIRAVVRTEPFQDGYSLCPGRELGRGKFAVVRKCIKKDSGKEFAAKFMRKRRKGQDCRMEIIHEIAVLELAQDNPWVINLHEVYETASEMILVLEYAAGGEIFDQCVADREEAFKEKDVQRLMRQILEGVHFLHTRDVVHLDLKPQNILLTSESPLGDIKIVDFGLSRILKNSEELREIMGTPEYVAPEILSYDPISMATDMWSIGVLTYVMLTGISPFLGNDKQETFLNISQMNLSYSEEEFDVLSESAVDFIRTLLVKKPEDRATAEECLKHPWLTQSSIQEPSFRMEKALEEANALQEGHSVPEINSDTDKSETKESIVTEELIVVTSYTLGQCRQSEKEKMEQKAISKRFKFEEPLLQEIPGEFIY
The data set is described as follows: Inhibition of DRAK1 at 1 uM.

For data set [16], the target named is T2, MAP kinase-activated protein kinase 2. The data set is described as follows: Inhibition of MK2 pretreated for 30 mins before fluorescein labeled substrate peptide addition measured after 2 hrs by IMAP assay.

T2 sequence (P49137 whole entry): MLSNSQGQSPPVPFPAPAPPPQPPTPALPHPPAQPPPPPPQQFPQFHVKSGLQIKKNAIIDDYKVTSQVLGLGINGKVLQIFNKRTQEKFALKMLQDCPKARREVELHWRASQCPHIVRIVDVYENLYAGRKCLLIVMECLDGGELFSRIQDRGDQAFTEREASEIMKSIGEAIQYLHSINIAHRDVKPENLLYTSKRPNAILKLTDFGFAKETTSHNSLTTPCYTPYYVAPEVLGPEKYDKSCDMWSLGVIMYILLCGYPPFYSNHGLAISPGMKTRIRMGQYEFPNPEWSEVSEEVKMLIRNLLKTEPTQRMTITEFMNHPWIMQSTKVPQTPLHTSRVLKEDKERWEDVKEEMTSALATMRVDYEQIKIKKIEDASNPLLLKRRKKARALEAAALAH
Serine/threonine-protein kinase pim-1 (Homo sapiens), sequence (P11309 whole entry, looked up): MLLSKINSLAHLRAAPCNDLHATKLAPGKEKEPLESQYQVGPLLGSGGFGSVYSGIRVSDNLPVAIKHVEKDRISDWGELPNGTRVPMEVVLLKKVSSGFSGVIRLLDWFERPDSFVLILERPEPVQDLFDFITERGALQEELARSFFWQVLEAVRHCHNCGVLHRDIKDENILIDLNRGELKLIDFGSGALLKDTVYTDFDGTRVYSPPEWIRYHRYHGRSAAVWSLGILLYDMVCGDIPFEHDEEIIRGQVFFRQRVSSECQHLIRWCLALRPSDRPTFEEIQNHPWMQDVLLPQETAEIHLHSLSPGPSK
MAP kinase-activated protein kinase 3 (Homo sapiens), sequence (Q16644 whole entry, looked up): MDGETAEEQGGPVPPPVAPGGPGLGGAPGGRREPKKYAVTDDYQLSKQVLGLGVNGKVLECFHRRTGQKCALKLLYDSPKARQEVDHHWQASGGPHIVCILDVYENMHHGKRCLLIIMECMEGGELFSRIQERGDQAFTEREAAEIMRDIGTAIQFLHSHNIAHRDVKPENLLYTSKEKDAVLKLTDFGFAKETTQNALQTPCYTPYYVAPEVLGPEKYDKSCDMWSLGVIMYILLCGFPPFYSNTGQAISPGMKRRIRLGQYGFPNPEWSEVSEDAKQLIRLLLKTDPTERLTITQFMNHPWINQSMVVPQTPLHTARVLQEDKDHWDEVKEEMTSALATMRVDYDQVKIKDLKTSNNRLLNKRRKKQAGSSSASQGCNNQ
Mitogen-activated protein kinase 3 (Homo sapiens), sequence (P27361 whole entry): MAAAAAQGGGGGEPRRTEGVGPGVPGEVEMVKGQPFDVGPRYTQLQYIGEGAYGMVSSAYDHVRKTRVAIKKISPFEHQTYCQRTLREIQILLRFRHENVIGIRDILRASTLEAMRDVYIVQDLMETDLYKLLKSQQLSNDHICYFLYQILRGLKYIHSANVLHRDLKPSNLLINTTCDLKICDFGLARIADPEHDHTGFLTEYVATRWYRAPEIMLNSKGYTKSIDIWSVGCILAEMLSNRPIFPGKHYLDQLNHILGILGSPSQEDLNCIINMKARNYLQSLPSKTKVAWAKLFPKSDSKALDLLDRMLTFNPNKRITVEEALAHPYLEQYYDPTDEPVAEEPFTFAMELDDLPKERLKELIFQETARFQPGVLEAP
Mitogen-activated protein kinase 1 (Homo sapiens), sequence (P28482 whole entry, looked up): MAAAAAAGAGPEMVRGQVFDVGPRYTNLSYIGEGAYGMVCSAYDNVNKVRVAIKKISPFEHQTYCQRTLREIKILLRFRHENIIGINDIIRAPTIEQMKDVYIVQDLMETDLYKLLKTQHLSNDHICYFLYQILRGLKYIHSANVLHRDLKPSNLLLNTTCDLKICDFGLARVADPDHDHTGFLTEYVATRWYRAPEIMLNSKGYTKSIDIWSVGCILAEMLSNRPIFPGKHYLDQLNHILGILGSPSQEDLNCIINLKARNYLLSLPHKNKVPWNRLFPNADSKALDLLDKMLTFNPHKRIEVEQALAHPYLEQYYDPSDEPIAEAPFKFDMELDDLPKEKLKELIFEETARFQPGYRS
Serine/threonine-protein kinase Chk2 (Homo sapiens), sequence (O96017 whole entry): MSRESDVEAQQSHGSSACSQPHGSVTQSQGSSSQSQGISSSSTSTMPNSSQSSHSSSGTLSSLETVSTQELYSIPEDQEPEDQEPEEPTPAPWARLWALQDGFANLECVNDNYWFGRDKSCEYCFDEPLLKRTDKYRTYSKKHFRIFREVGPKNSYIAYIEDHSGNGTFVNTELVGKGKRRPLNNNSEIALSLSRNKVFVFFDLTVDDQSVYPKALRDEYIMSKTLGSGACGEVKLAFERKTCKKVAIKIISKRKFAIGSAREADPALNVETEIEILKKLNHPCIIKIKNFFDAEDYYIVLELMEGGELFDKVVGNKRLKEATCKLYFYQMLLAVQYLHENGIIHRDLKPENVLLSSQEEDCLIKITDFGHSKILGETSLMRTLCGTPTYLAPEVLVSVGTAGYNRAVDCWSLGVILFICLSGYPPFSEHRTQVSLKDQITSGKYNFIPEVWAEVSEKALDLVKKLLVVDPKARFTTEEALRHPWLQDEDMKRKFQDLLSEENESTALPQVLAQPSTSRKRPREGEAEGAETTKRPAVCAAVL
Description for in vitro: Permeability across human Caco2 cells

As for `O=C1NCC2(CCCNC2)c2[nH]c(-c3ccnc(-c4ccc5c(c4)OCO5)n3)cc21` (racemic), the figures for the half-life in data set [1] and in data set [5] were 48.5 min and over 60 min, respectively. For the same molecule, the AUC in data set [2] was 3.21 µM·h. Besides, the 50% effective concentration (EC50) was found to be 1400 nM in the data set on THP-1, 1100 nM in the data set with PBMC, 930 nM in [13] and 28 nM in data set [16]. The inhibition result in data set [3] was “inactive”. Moreover, the inhibition in [4] was over 80%; in data set [6], over 80%; in [7], over 95%; in data set [8], over 95%; in data set [9], over 80%; in [10], over 80%. For the same molecule, the inhibition in [12] and in data set [15] was over 80% throughout. The molecule further displayed an apparent permeability coefficient (Papp) in “in vitro” of 3.4 ×10⁻⁶ cm/s. Also, in [11], the pKa is 8.3. For the same molecule, the bioavailability in data set [14] came to 48%.
